This experiment has as its target T1, Ct7OMT (Coptis teeta, UniProt A0A2Z5FRT2).
T1 construct: gene 7OMT
The experiment is described as follows: UPLC-QTOF-MS/MS product detection. In kind it is biochemical. To be noted: SAM 0.1 mM, substrate 100 uM, pH 8.0, 30 C, 1 h.

The structures appear in SMILES notation.

T1 sequence (A0A2Z5FRT2 entry or part of it): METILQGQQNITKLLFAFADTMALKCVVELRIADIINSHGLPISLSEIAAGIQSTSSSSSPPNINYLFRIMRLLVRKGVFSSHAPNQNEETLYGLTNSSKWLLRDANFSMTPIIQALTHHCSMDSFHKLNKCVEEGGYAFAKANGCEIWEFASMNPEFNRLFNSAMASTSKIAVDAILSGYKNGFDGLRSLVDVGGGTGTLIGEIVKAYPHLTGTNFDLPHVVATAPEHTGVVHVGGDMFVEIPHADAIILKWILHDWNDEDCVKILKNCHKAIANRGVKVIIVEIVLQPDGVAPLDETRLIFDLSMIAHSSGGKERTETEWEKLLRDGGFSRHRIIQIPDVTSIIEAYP

For the compound `Oc1ccc(C[C@@H]2NCCc3cc(O)c(O)cc32)cc1` [compound 1, (S)-norcoclaurine], the UPLC-QTOF-MS/MS product detection entry is recorded as “Ct7OMT also O-methylates (S)-norcoclaurine at C6, yielding (S)-coclaurine”.
